Source: US6869971B1, “UCS1025 derivatives” (Kyowa Hakko Kogyo Co., Ltd., priority 1999, dated 2005)
Converted amounts (≈) assume the structure as drawn.

What was measured:
Format in all cases: cell-based
[1] = test system: Bacillus subtilis ATCC 10707; test: Antibacterial activity (MIC), agar dilution method; conditions: ATCC10707, read-out: minimum inhibitory concentration (MIC), BS
Method: (§1) Antibacterial activities (minimum inhibitory concentration (MIC: mg/ml)) of Compounds (I) on various bacteria are shown in Table 2. The antibacterial activity was measured by an agar dilution method using a medium comprising 3 g/L Bacto-Tryptone (manufactured by Difco), 3 g/L meat extract, 1 g/L yeast extract, 1 g/L glucose and 16 g/L agar.

[2] = test system: Enteroccccus hirae ATCC 10541; test: Antibacterial activity (MIC), agar dilution method; conditions: read-out: minimum inhibitory concentration (MIC), ER
Method: as §1

[3] = test system: human renal carcinoma cell line ACHN; test: Growth inhibition action on human renal carcinoma cell line ACHN; conditions: ACHN cells, 72 hours culture with compound, Cell proliferation kit II, read-out: IC50 (concentration inhibiting 50% of the cell growth)
Method: Cells of human renal carcinoma cell line ACHN adjusted to a density of 3×10^4 cells/ml with RPMI (Roswell Park Memorial Institute) medium comprising 10% fetal bovine serum and 2 mmol/l glutamine were dispensed in a volume of 50 μl into each well of a 96 well microtiter plate and cultured at 37° C. for 24 hours in a carbon dioxide incubator. Each of the test compounds serially diluted with the above medium was added to each well in a volume of 50 μl, following by culturing at 37° C. for 72 hours in a carbon dioxide incubator. After discarding the culture supernatant, each well was washed twice with 0.1 ml of phosphate buffered saline (PBS), and then 0.1 ml of the above medium was again added to each well. Cell proliferation kit II (Boehringer Mannheim) was used for the measurement of the number of cells in each well. After addition of a color-producing reagent and subsequent incubation at 37° C. for 3 hours in a carbon dioxide incubator, absorbance at 490 nm and 655 nm was measured using a microplate reader, and a value (differential absorbance) was calculated by subtracting the absorbance at 655 nm from the absorbance at 490 nm in each well. By comparing the differential absorbance obtained from untreated cells and that obtained from cells treated with a predetermined concentration of each test compound, the concentration of the test compound capable of inhibiting 50% of the cell growth was calculated and expressed as IC50.

| Compound | MIC [1] [µg/mL] | MIC [2] [µg/mL] | IC50 [3] [µM] |
| --- | --- | --- | --- |
| C[C@H]1C=C[C@H]2CCCC[C@@H]2C1C(=O)C1Cc2cccn2C1=O (stereo partly shown) [Compound 16] |  |  | 64 |
| CCN(CC)C(=O)[C@@H]1CCN2C(=O)C3(C(=O)C4[C@H]5CCCC[C@@H]5C=C[C@@H]4C)O[C@@H]3[C@]12O (stereo partly shown) [Compound 38] | 16000 (≈ 37.2 mM) | 8100 (≈ 18.8 mM) |  |
| CCS[C@@H]1[C@H](C(=O)C2[C@H]3CCCC[C@@H]3C=C[C@@H]2C)C(=O)N2CC[C@@H](C(=O)N(CC)CC)[C@@]12O (stereo partly shown) [Compound 12] |  |  | 5.7 |
| C=CCOC(=O)[C@@H]1CCN2C(=O)C3(C(=O)C4[C@H]5CCCC[C@@H]5C=C[C@@H]4C)O[C@@H]3[C@]12O (stereo partly shown) [Compound 36] | 48000 (≈ 116 mM) | 48000 (≈ 116 mM) |  |

The remaining molecules from weak to strong by MIC [1], led by results:

| MIC [1] [µg/mL] | MIC [2] [µg/mL] | IC50 [3] [µM] | Compound |
| --- | --- | --- | --- |
| 13000 (≈ 29.7 mM) | 13000 (≈ 29.7 mM) |  | C[C@H]1C=C[C@H]2CCCC[C@@H]2C1C(=O)[C@@]1(Br)C(=O)N2CC[C@H]3C(=O)O[C@@H]1[C@]32O (stereo partly shown) [Compound 32] |
| 1800 (≈ 4.34 mM) | 3600 (≈ 8.68 mM) | 5.6 | CCN(CC)C(=O)[C@@H]1CCN2C(=O)C(C(=O)C3[C@H]4CCCC[C@@H]4C=C[C@@H]3C)=C[C@]12O (stereo partly shown) [Compound 6] |
| 1300 (≈ 2.94 mM) | 5000 (≈ 11.3 mM) |  | CCCN(CCC)C(=O)[C@@H]1CCN2C(=O)C(C(=O)C3[C@H]4CCCC[C@@H]4C=C[C@@H]3C)=C[C@]12O (stereo partly shown) [Compound 7] |
| 520 (≈ 1.39 mM) | 520 (≈ 1.39 mM) | 4.4 | COC(=O)[C@@H]1CCN2C(=O)C(C(=O)C3[C@H]4CCCC[C@@H]4C=C[C@@H]3C)=C[C@]12O (stereo partly shown) [Compound 1] |
| 380 (≈ 0.807 mM) | 1500 (≈ 3.19 mM) | 2.7 | CCCCN(CCCC)C(=O)[C@@H]1CCN2C(=O)C(C(=O)C3[C@H]4CCCC[C@@H]4C=C[C@@H]3C)=C[C@]12O (stereo partly shown) [Compound 8] |
